#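 Each compound was tested at five concentrations against cells in 96-well plates for 48 hours. Here, GI50 denotes the concentration required for 50% inhibition of growth.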 Active and inactive are the calls of the source. Cut-off read from the data, not from the text of the source: active = GI50 up to about 1.1 µM and inactive = higher.
# Assays:
# Experiment in all cases: NCI anticancer screen, dose series, 48 h
# M14 = system: M14
# 786-0 = system: 786-0
# MOLT-4 = system: MOLT-4
# OVCAR-5 = system: OVCAR-5
# KM12 = system: KM12
# MDA-MB-435 = system: MDA-MB-435
# NCI-H460 = system: NCI-H460
# RXF 393 = system: RXF 393
# HCC 2998 = system: HCC 2998
# OVCAR-4 = system: OVCAR-4
# SR = system: SR
# NCI-H226 = system: NCI-H226
# Hs-578T = system: Hs-578T
# IGROV-1 = system: IGROV-1
# SK-MEL-28 = system: SK-MEL-28
# T47D = system: T47D
# HCT-116 = system: HCT-116
# Malme-3M = system: Malme-3M
# CAKI-1 = system: CAKI-1
# SF-268 = system: SF-268
# A498 = system: A498
# SNB-75 = system: SNB-75
# SF-539 = system: SF-539
# NCI/ADR-RES = system: NCI/ADR-RES
# SW-620 = system: SW-620
# HOP-62 = system: HOP-62
# OVCAR-3 = system: OVCAR-3
# SNB-19 = system: SNB-19
# HCT-15 = system: HCT-15
# UACC-257 = system: UACC-257
# BT-549 = system: BT-549
# TK-10 = system: TK-10
# ACHN = system: ACHN
# CCRF-CEM = system: CCRF-CEM
# LOX IMVI = system: LOX IMVI
# MDA-N = system: MDA-N
# MCF7 = system: MCF7
# RPMI-8226 = system: RPMI-8226
# PC-3 = system: PC-3
# A549 = system: A549
# MDA-MB-231 = system: MDA-MB-231
# COLO 205 = system: COLO 205
# SK-OV-3 = system: SK-OV-3
# DU-145 = system: DU-145
# UO-31 = system: UO-31
# HOP-92 = system: HOP-92
# HT-29 = system: HT-29
# EKVX = system: EKVX
# U-251 = system: U-251
# UACC-62 = system: UACC-62
# NCI-H23 = system: NCI-H23
# K562 = system: K562
# SF-295 = system: SF-295
# OVCAR-8 = system: OVCAR-8
# SN12C = system: SN12C
# HL-60 = system: HL-60
# SK-MEL-2 = system: SK-MEL-2
# SK-MEL-5 = system: SK-MEL-5
# NCI-H522 = system: NCI-H522
smiles,measurement,setting,value
CC(=O)C(=[N+]=[N-])C(=O)OC(C)(C)C#N,GI50,M14,> 10 µM (inactive)
same,GI50,786-0,> 10 µM (inactive)
same,GI50,MOLT-4,> 10 µM (inactive)
same,GI50,OVCAR-5,> 10 µM (inactive)
same,GI50,KM12,> 10 µM (inactive)
same,GI50,MDA-MB-435,> 10 µM (inactive)
same,GI50,NCI-H460,> 10 µM (inactive)
same,GI50,RXF 393,> 10 µM (inactive)
same,GI50,HCC 2998,> 10 µM (inactive)
same,GI50,OVCAR-4,> 10 µM (inactive)
same,GI50,SR,> 10 µM (inactive)
same,GI50,NCI-H226,> 10 µM (inactive)
same,GI50,Hs-578T,> 10 µM (inactive)
same,GI50,IGROV-1,> 10 µM (inactive)
same,GI50,SK-MEL-28,> 10 µM (inactive)
same,GI50,T47D,> 10 µM (inactive)
same,GI50,HCT-116,> 10 µM (inactive)
same,GI50,Malme-3M,> 10 µM (inactive)
same,GI50,CAKI-1,> 10 µM (inactive)
same,GI50,SF-268,> 10 µM (inactive)
same,GI50,A498,> 10 µM (inactive)
same,GI50,SNB-75,1.48 µM (inactive)
same,GI50,SF-539,> 10 µM (inactive)
same,GI50,NCI/ADR-RES,> 10 µM (inactive)
same,GI50,SW-620,> 10 µM (inactive)
same,GI50,HOP-62,> 10 µM (inactive)
same,GI50,OVCAR-3,> 10 µM (inactive)
same,GI50,SNB-19,> 10 µM (inactive)
same,GI50,HCT-15,> 10 µM
same,GI50,UACC-257,> 10 µM (inactive)
same,GI50,BT-549,> 10 µM (inactive)
same,GI50,TK-10,> 10 µM (inactive)
same,GI50,ACHN,> 10 µM (inactive)
same,GI50,CCRF-CEM,> 10 µM (inactive)
same,GI50,LOX IMVI,> 10 µM (inactive)
same,GI50,MDA-N,> 10 µM (inactive)
same,GI50,MCF7,> 10 µM (inactive)
same,GI50,RPMI-8226,> 10 µM (inactive)
same,GI50,PC-3,> 10 µM (inactive)
same,GI50,A549,> 10 µM (inactive)
same,GI50,MDA-MB-231,> 10 µM (inactive)
same,GI50,COLO 205,> 10 µM (inactive)
same,GI50,SK-OV-3,> 10 µM (inactive)
same,GI50,DU-145,> 10 µM (inactive)
same,GI50,UO-31,> 10 µM (inactive)
same,GI50,HOP-92,> 10 µM (inactive)
same,GI50,HT-29,> 10 µM (inactive)
same,GI50,EKVX,> 10 µM (inactive)
same,GI50,U-251,> 10 µM (inactive)
same,GI50,UACC-62,> 10 µM (inactive)
same,GI50,NCI-H23,> 10 µM (inactive)
same,GI50,K562,> 10 µM (inactive)
same,GI50,SF-295,> 10 µM (inactive)
same,GI50,OVCAR-8,> 10 µM (inactive)
same,GI50,SN12C,> 10 µM (inactive)
same,GI50,HL-60,> 10 µM (inactive)
same,GI50,SK-MEL-2,> 10 µM (inactive)
same,GI50,SK-MEL-5,> 10 µM (inactive)
Nc1cc2c(nnn2C2OC(COCc3ccccc3)C(OCc3ccccc3)C2OCc2ccccc2)c(=O)[nH]1 (configuration not stated),GI50,M14,13.5 µM (inactive)
same,GI50,786-0,19.6 µM (inactive)
same,GI50,MOLT-4,7.85 µM (inactive)
same,GI50,OVCAR-5,27.6 µM (inactive)
same,GI50,KM12,13 µM (inactive)
same,GI50,MDA-MB-435,10.9 µM (inactive)
same,GI50,NCI-H460,15.9 µM (inactive)
same,GI50,RXF 393,6.75 µM (inactive)
same,GI50,OVCAR-4,12.5 µM (inactive)
same,GI50,SR,11.5 µM (inactive)
same,GI50,NCI-H226,15.5 µM (inactive)
same,GI50,Hs-578T,97.1 µM (inactive)
same,GI50,IGROV-1,33.1 µM (inactive)
same,GI50,SK-MEL-28,46.9 µM (inactive)
same,GI50,T47D,5.9 µM (inactive)
same,GI50,HCT-116,10.6 µM (inactive)
same,GI50,Malme-3M,27.7 µM (inactive)
same,GI50,CAKI-1,> 100 µM (inactive)
same,GI50,SF-268,29.4 µM (inactive)
same,GI50,A498,48.8 µM (inactive)
same,GI50,SNB-75,25.8 µM (inactive)
same,GI50,SF-539,21.6 µM (inactive)
same,GI50,NCI/ADR-RES,> 100 µM (inactive)
same,GI50,SW-620,37 µM (inactive)
same,GI50,HOP-62,37.8 µM (inactive)
same,GI50,OVCAR-3,18.7 µM (inactive)
same,GI50,SNB-19,22.8 µM (inactive)
same,GI50,HCT-15,40.3 µM
same,GI50,UACC-257,14.9 µM (inactive)
same,GI50,BT-549,20 µM (inactive)
same,GI50,TK-10,10 µM (inactive)
same,GI50,ACHN,32.8 µM (inactive)
same,GI50,CCRF-CEM,10.3 µM (inactive)
same,GI50,LOX IMVI,14.1 µM (inactive)
same,GI50,MDA-N,10.2 µM (inactive)
same,GI50,MCF7,5.48 µM (inactive)
same,GI50,PC-3,6.4 µM (inactive)
same,GI50,A549,13.5 µM (inactive)
same,GI50,MDA-MB-231,21.6 µM (inactive)
same,GI50,COLO 205,7.33 µM (inactive)
same,GI50,SK-OV-3,33.3 µM (inactive)
same,GI50,DU-145,35.9 µM (inactive)
same,GI50,UO-31,58.1 µM (inactive)
same,GI50,HOP-92,28.4 µM (inactive)
same,GI50,HT-29,14.2 µM (inactive)
same,GI50,EKVX,6.15 µM (inactive)
same,GI50,U-251,9.86 µM (inactive)
same,GI50,UACC-62,14.9 µM (inactive)
same,GI50,NCI-H23,19.5 µM (inactive)
same,GI50,K562,7.41 µM (inactive)
same,GI50,SF-295,17.7 µM (inactive)
same,GI50,OVCAR-8,18.9 µM (inactive)
same,GI50,SN12C,9.59 µM (inactive)
same,GI50,NCI-H522,18.9 µM (inactive)
same,GI50,HL-60,5.47 µM (inactive)
same,GI50,SK-MEL-2,10.5 µM (inactive)
same,GI50,SK-MEL-5,7.26 µM (inactive)
CCC1(c2ccc(N3C(=O)c4cc(OC)c(OC)cc4C3=O)cc2)CCC(=O)NC1=O (configuration not stated),GI50,M14,> 10 µM (inactive)
same,GI50,786-0,> 10 µM (inactive)
same,GI50,MOLT-4,> 10 µM (inactive)
same,GI50,OVCAR-5,> 10 µM (inactive)
same,GI50,KM12,> 10 µM (inactive)
same,GI50,MDA-MB-435,> 10 µM (inactive)
same,GI50,NCI-H460,> 10 µM (inactive)
same,GI50,RXF 393,> 10 µM (inactive)
same,GI50,HCC 2998,> 10 µM (inactive)
same,GI50,OVCAR-4,> 10 µM (inactive)
same,GI50,SR,> 10 µM (inactive)
same,GI50,NCI-H226,> 10 µM (inactive)
same,GI50,Hs-578T,> 10 µM (inactive)
same,GI50,IGROV-1,> 10 µM (inactive)
same,GI50,SK-MEL-28,> 10 µM (inactive)
same,GI50,T47D,> 10 µM (inactive)
same,GI50,HCT-116,> 10 µM (inactive)
same,GI50,Malme-3M,> 10 µM (inactive)
same,GI50,CAKI-1,> 10 µM (inactive)
same,GI50,SF-268,> 10 µM (inactive)
same,GI50,A498,> 10 µM (inactive)
same,GI50,SF-539,> 10 µM (inactive)
same,GI50,NCI/ADR-RES,> 10 µM (inactive)
same,GI50,SW-620,> 10 µM (inactive)
same,GI50,HOP-62,> 10 µM (inactive)
same,GI50,OVCAR-3,> 10 µM (inactive)
same,GI50,SNB-19,> 10 µM (inactive)
same,GI50,HCT-15,> 10 µM
same,GI50,UACC-257,> 10 µM (inactive)
same,GI50,BT-549,> 10 µM (inactive)
same,GI50,TK-10,> 10 µM (inactive)
same,GI50,ACHN,> 10 µM (inactive)
same,GI50,CCRF-CEM,> 10 µM (inactive)
same,GI50,LOX IMVI,> 10 µM (inactive)
same,GI50,MDA-N,> 10 µM (inactive)
same,GI50,MCF7,> 10 µM (inactive)
same,GI50,RPMI-8226,> 10 µM (inactive)
same,GI50,PC-3,> 10 µM (inactive)
same,GI50,A549,> 10 µM (inactive)
same,GI50,MDA-MB-231,> 10 µM (inactive)
same,GI50,COLO 205,> 10 µM (inactive)
same,GI50,SK-OV-3,> 10 µM (inactive)
same,GI50,DU-145,> 10 µM (inactive)
same,GI50,UO-31,> 10 µM (inactive)
same,GI50,HOP-92,> 10 µM (inactive)
same,GI50,HT-29,> 10 µM (inactive)
same,GI50,EKVX,> 10 µM (inactive)
same,GI50,U-251,> 10 µM (inactive)
same,GI50,UACC-62,> 10 µM (inactive)
same,GI50,NCI-H23,> 10 µM (inactive)
same,GI50,K562,> 10 µM (inactive)
same,GI50,SF-295,> 10 µM (inactive)
same,GI50,OVCAR-8,> 10 µM (inactive)
same,GI50,SN12C,> 10 µM (inactive)
same,GI50,HL-60,> 10 µM (inactive)
same,GI50,SK-MEL-2,> 10 µM (inactive)
same,GI50,SK-MEL-5,> 10 µM (inactive)
